We go through 19 molecules from US20230192705A1, “SHP2 INHIBITORS, COMPOSITIONS AND USES THEREOF” (Betta Pharmaceuticals Co., Ltd, priority 2020, published 2023).

The target in this assay is T1, SHP2 (Homo sapiens, UniProt Q06124).
T1 sequence (Q06124 1-593): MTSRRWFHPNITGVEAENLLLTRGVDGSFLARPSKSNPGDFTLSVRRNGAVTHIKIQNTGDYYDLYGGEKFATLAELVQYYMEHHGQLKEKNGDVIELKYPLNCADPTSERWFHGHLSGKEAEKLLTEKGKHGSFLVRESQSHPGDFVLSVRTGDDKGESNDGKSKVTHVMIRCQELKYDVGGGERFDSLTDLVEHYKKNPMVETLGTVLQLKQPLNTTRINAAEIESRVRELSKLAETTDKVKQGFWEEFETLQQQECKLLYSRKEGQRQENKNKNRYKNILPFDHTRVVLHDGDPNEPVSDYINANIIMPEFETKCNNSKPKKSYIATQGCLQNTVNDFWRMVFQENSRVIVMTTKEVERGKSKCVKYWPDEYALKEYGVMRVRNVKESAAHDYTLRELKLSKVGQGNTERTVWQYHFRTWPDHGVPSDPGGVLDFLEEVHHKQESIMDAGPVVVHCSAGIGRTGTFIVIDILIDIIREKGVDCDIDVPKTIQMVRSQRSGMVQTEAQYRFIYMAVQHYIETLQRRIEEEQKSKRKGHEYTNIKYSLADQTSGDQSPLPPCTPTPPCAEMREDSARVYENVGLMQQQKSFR
Put plainly: SHP2 allosteric inhibitor enzyme activity assay (DiFMUP fluorescence). Format: biochemical. The following applies: class symbols. The text has this: SHP2 is activated by the binding of a bis-tyrosyl-phosphorylated peptide to its Src homologous 2 (SH2) domain. This subsequent activation step leads to the release of the automatic inhibition interface of SHP2, which in turn activates the SHP2 protein tyrosine phosphatase (PTP) and can be used for substrate recognition and reaction catalysis. The catalytic activity of SHP2 was monitored using the alternative DiFMUP in a rapid fluorescence assay format.
Assay procedures are as follows:
(1) Compound Formulation:
The compound of the present invention (10 mM stock solution) was diluted to a suitable multiple with 100% DMSO and assay buffer, and the final test concentration of the compound of the present invention was 1 μM, 0.333 μM, 0.111 μM, 0.0370 μM, 0.0124 μM, 0.00412 μM, 0.00137 μM, 0.00046 μM, 0.00015 μM, 0.00 μM;
(2) Preparation of Enzyme Reaction Working Fluid:
SHP2 enzyme activity was performed using a final reaction volume of 50 μL and the following assay buffer conditions in 96-well black polystyrene plates (flat bottom, low flange, non-bonding surface) (Perki Elmer, Cat #6005270) at room temperature: 60 mM HEPES, 75 mM NaCl, 75 mM KCl, 0.05% BRIJ-35, 1 mM EDTA, 5 mM DTT.
(3) Enzyme Catalytic Reaction and Data Monitoring:
Compounds of the present invention were added to the corresponding 96-well plates, and no compound and enzyme were provided as blank test wells. SHP2 Activating Peptide (IRS1_pY1172 (dPEG8)pY1222) was placed on ice for melting, and 0.5 μM was added per well, then 0.2 ng SHP2 protein samples were added to corresponding well plates, and incubated at room temperature for 1 hour. Substrate DiFMUP (Invitrogen, Cat #D6567) was added to the reaction at room temperature for 1 hour. Fluorescence signals were monitored using an enzyme reader (Envision, Perki Elmer) using excitation wavelengths and emission wavelengths of 340 nm and 450 nm, respectively.
Inhibition %=[1−(Conversion_sample−Conversion_min)/(Conversion_max−Conversion_min)]*100% Calculation formula: […]
where: Conversion_sample is the mean reading of the sample wells; Conversion_min is the mean reading of blank control wells, representing the reading of the wells without enzyme; Conversion_max is the mean of positive control wells, representing the reading of the wells without inhibitor.
The dose-response curve is fitted with GraphPad Prism software and IC50 was calculated by the “log[inhibitor] vs. response-variable slope” program.
Usually IC50 stands for the midpoint of a concentration-inhibition curve. Lower therefore signals inhibition by little substance. Turning to `N[C@@H]1c2ccccc2CC12CCN(c1nc3[nH]nc(C4(c5ccncc5F)CC4)c3c(=O)[nH]1)CC2` [Example 58, (S)-6-(1-amino-1,3-dihydrospiro[indene-2,4′-piperidin]-1′-yl)-3-(1-(3-fluoropyridin-4-yl)cyclopropyl)-1,5-dihydro-4H-pyrazolo[3,4-d]pyrimidin-4-one], the IC50 is at most 20 nM.

Consider `Nc1nccc(C2(c3n[nH]c4nc(N5CCC6(CC5)Cc5ccccc5[C@H]6N)[nH]c(=O)c34)CC2)c1F` [Example 59, (S)-6-(1-amino-1,3-dihydrospiro[indene-2,4′-piperidin]-1′-yl)-3-(1-(2-amino-3-fluoropyridin-4-yl)cyclopropyl)-1,5-dihydro-4H-pyrazolo[3,4-d]pyrimidin-4-one], for which the IC50 is at most 20 nM.

As for `CC(=O)N1CC(F)(F)c2c1cccc2C1(c2n[nH]c3nc(N4CCC5(CC4)Cc4ccccc4[C@H]5N)[nH]c(=O)c23)CC1` [Example 60, (S)-3-(1-(1-acetyl-3,3-difluoroindolin-4-yl)cyclopropyl)-6-(1-amino-1,3-dihydrospiro[indene-2,4′-piperidin]-1′-yl)-1,5-dihydro-4H-pyrazolo[3,4-d]pyrimidin-4-one], the IC50 was at most 20 nM.

For `CN(C)c1nccc(C2(c3n[nH]c4nc(N5CCC6(CC5)Cc5ccccc5[C@H]6N)[nH]c(=O)c34)CC2)c1Cl` [Example 61, (S)-6-(1-amino-1,3-dihydrospiro[indene-2,4′-piperidin]-1′-yl)-3-(1-(3-chloro-2-(dimethylamino)pyridin-4-yl)cyclopropyl)-1,5-dihydro-4H-pyrazolo[3,4-d]pyrimidin-4-one], the IC50 was at most 20 nM.

For `COc1nccc(C2(c3n[nH]c4nc(N5CCC6(CC5)Cc5ccccc5[C@H]6N)[nH]c(=O)c34)CC2)c1Cl` [Example 62, (S)-6-(1-amino-1,3-dihydrospiro[indene-2,4′-piperidin]-1′-yl)-3-(1-(3-chloro-2-methoxypyridin-4-yl)cyclopropyl)-1,5-dihydro-4H-pyrazolo[3,4-d]pyrimidin-4-one], the IC50 is at most 20 nM.

Take `N[C@@H]1c2ccccc2CC12CCN(c1nc3[nH]nc(C4(c5cccc(-c6ccccc6)c5)CC4)c3c(=O)[nH]1)CC2` [Example 63, (S)-3-(1-([1,1′-biphenyl]-3-yl)cyclopropyl)-6-(1-amino-1,3-dihydrospiro[indene-2,4′-piperidin]-1′-yl)-1,5-dihydro-4H-pyrazolo[3,4-d]pyrimidin-4-one]: the IC50 is at most 20 nM.

In turn, `N[C@@H]1c2ccccc2CC12CCN(c1nc3[nH]nc(C4(c5ccnc(N6CCOCC6)c5Cl)CC4)c3c(=O)[nH]1)CC2` [Example 65, (S)-6-(1-amino-1,3-dihydrospiro[indene-2,4′-piperidin]-1′-yl)-3-(1-(3-chloro-2-morpholinopyridin-4-yl)cyclopropyl)-1,5-dihydro-4H-pyrazolo[3,4-d]pyrimidin-4-one] gave a concentration for half-maximal inhibition (IC50) of 20 to 60 nM.

On to `N[C@@H]1c2ccccc2CC12CCN(c1nc3[nH]nc(C4(c5ccnc(N6CCC6)c5Cl)CC4)c3c(=O)[nH]1)CC2` [Example 66, (S)-6-(1-amino-1,3-dihydrospiro[indene-2,4′-piperidin]-1′-yl)-3-(1-(2-(azetidin-1-yl)-3-chloropyridin-4-yl)cyclopropyl)-1,5-dihydro-4H-pyrazolo[3,4-d]pyrimidin-4-one], for which the half-inhibitory concentration (IC50) is at most 20 nM.

As for `N[C@@H]1c2ccccc2CC12CCN(c1nc3[nH]nc(C4(c5ccnc(NC6CCC6)c5Cl)CC4)c3c(=O)[nH]1)CC2` [Example 67, (S)-6-(1-amino-1,3-dihydrospiro[indene-2,4′-piperidin]-1′-yl)-3-(1-(3-chloro-2-(cyclobutylamino)pyridin-4-yl)cyclopropyl)-1,5-dihydro-4H-pyrazolo[3,4-d]pyrimidin-4-one], the IC50 is at most 20 nM.

Take `N[C@@H]1c2ccccc2CC12CCN(c1nc3[nH]nc(C4(c5ccc(Cl)nn5)CC4)c3c(=O)[nH]1)CC2` [Example 69, (S)-6-(1-amino-1,3-dihydrospiro[indene-2,4′-piperidin]-1′-yl)-3-(1-(6-chloropyridazin-3-yl)cyclopropyl)-1,5-dihydro-4H-pyrazolo[3,4-d]pyrimidin-4-one]: the IC50 lay within 20 to 60 nM.

The molecule `N[C@@H]1c2ccccc2CC12CCN(c1nc3[nH]nc(C4(c5cnnc(Cl)c5)CC4)c3c(=O)[nH]1)CC2` [Example 70, (S)-6-(1-amino-1,3-dihydrospiro[indene-2,4′-piperidin]-1′-yl)-3-(1-(6-chloropyridazin-4-yl)cyclopropyl)-1,5-dihydro-4H-pyrazolo[3,4-d]pyrimidin-4-one] came in with a concentration for half-maximal inhibition (IC50) of at most 20 nM.

For `N[C@@H]1c2ccccc2CC12CCN(c1nc3[nH]nc(C4(c5ccnnc5)CC4)c3c(=O)[nH]1)CC2` [Example 71, (S)-6-(1-amino-1,3-dihydrospiro[indene-2,4′-piperidin]-1′-yl)-3-(1-(pyridazin-4-yl)cyclopropyl)-1,5-dihydro-4H-pyrazolo[3,4-d]pyrimidin-4-one], the IC50 is at most 20 nM.

In turn, `N[C@@H]1c2ccccc2CC12CCN(c1nc3[nH]nc(C4(c5ccnc(NC6CC6)c5Cl)CC4)c3c(=O)[nH]1)CC2` [Example 72, (S)-6-(1-amino-1,3-dihydrospiro[indene-2,4′-piperidin]-1′-yl)-3-(1-(3-chloro-2-(cyclopropylamino)pyridin-4-yl)cyclopropyl)-1,5-dihydro-4H-pyrazolo[3,4-d]pyrimidin-4-one] came in with an IC50 of at most 20 nM.

Molecule `Cn1ccc(C2(c3n[nH]c4nc(N5CCC6(CC5)Cc5ccccc5[C@H]6N)[nH]c(=O)c34)CC2)c(Cl)c1=O` [Example 73, (S)-6-(1-amino-1,3-dihydrospiro[indene-2,4′-piperidin]-1′-yl)-3-(1-(3-chloro-1-methyl-2-oxo-1,2-dihydropyridin-4-yl)cyclopropyl)-1,5-dihydro-4H-pyrazolo[3,4-d]pyrimidin-4-one] displayed an IC50 of at most 20 nM.

In the case of `N[C@@H]1c2ccccc2CC12CCN(c1nc3[nH]nc(C4(c5cccc6ccccc56)CC4)c3c(=O)[nH]1)CC2` [Example 77, (S)-6-(1-amino-1,3-dihydrospiro[indene-2,4′-piperidin]-1′-yl)-3-(1-(naphthalen-1-yl)cyclopropyl)-1,5-dihydro-4H-pyrazolo[3,4-d]pyrimidin-4-one], the IC50 was at most 20 nM.

Consider `N[C@@H]1c2ccccc2CC12CCN(c1nc3[nH]nc(C4(c5ccnc6ccccc56)CC4)c3c(=O)[nH]1)CC2` [Example 78, (S)-6-(1-amino-1,3-dihydrospiro[indene-2,4′-piperidin]-1′-yl)-3-(1-(quinolin-4-yl)cyclopropyl)-1,5-dihydro-4H-pyrazolo[3,4-d]pyrimidin-4-one], for which the IC50 was at most 20 nM.

As to `N[C@@H]1c2ccccc2CC12CCN(c1nc3[nH]nc(C4(c5ccnc6c5CCCN6)CC4)c3c(=O)[nH]1)CC2` [Example 79, (S)-6-(1-amino-1,3-dihydrospiro[indene-2,4′-piperidin]-1′-yl)-3-(1-(5,6,7,8-tetrahydro-1,8-naplitliyridin-4-yl)cyclopropyl)-1,5-dihydro-4H-pyrazolo[3,4-d]pyrimidin-4-one], the IC50 was at most 20 nM.

The molecule `N[C@@H]1c2ccccc2CC12CCN(c1nc3[nH]nc(C4(c5cccc6occc56)CC4)c3c(=O)[nH]1)CC2` [Example 80, (S)-6-(1-amino-1,3-dihydrospiro[indene-2,4′-piperidin]-1′-yl)-3-(1-(benzofuran-4-yl)cyclopropyl)-1,5-dihydro-4H-pyrazolo[3,4-d]pyrimidin-4-one] had an IC50 of at most 20 nM.

In turn, `Cn1ccc2c(C3(c4n[nH]c5nc(N6CCC7(CC6)Cc6ccccc6[C@H]7N)[nH]c(=O)c45)CC3)cccc21` [Example 81, (S)-6-(1-amino-1,3-dihydrospiro[indene-2,4′-piperidin]-1′-yl)-3-(1-(1-methyl-1H-indol-4-yl)cyclopropyl)-1,5-dihydro-4H-pyrazolo[3,4-d]pyrimidin-4-one] displayed an IC50 of at most 20 nM.
